Laboratory results as given in the SangsterLogP compilation.

Assay: method code SF-AS, from DOI: 10.1016/0223-5234(89)90112-8
Conditions: for logD: pH 7.4

| logD | logP | Structure (SMILES) |
| --- | --- | --- |
| 1.92 |  | C=CCOC1(c2ccccc2)CN(C)CCO1 (stereo not drawn) |
|  | 2.11 | CN1CCOC(OCCc2ccccc2)(c2ccccc2)C1 (stereo not drawn) |
| 2.05 |  | CN1CCOC(OCc2ccccc2)(c2ccccc2)C1 (stereo not drawn) |
| 1.95 |  | CCCOC1(c2ccccc2)CN(C)CCO1 (stereo not drawn) |
|  | 2.32 | CCCCCCCCOC1(c2ccccc2)CN(C)CCO1 (stereo not drawn) |
| 1.74 |  | CCOC1(c2ccccc2)OCCN(C)C1C (stereo not drawn) |
|  | 1.87 | CC1C(c2ccccc2)OC(O)(c2ccccc2)CN1C (stereo not drawn) |
| 0.97 |  | CN1CCOC(O)C1c1ccccc1 (stereo not drawn) |
| 1.96 |  | CCCOC1(c2ccccc2)CN(C)CC(C)O1 (stereo not drawn) |
| 1.76 |  | C#CCOC1(c2ccccc2)CN(C)CCO1 (stereo not drawn) |
| 1.98 |  | CC(C)COC1(c2ccccc2)CN(C)CCO1 (stereo not drawn) |
|  | 2.19 | CCCOC1(c2ccc(Br)cc2)CN(C)CCO1 (stereo not drawn) |
| 2.05 |  | CCCCOC1(c2ccccc2)CN(C)CCO1 (stereo not drawn) |

| Structure (SMILES) | logD | logP |
| --- | --- | --- |
| CN1CCOC(O)(c2ccccc2)C1 (stereo not drawn) | 1.3 |  |
| CN1CCOC(O)(c2ccc(Br)cc2)C1 (stereo not drawn) |  | 1.57 |
| CC1N(C)CCOC1(O)c1ccccc1 (stereo not drawn) | 1.31 |  |
| CN1CCOC(O)(c2cccc(C(F)(F)F)c2)C1 (stereo not drawn) |  | 1.39 |
| CC1CN(C)CC(O)(c2ccccc2)O1 (stereo not drawn) | 1.48 |  |
